Patent US20240423992A1, “BIOMARKERS FOR TREATING LIVER DISORDERS WITH THR-B AGONISTS AND RELATED USES” (Madrigal Pharmaceuticals, Inc., priority 2023, published 2024)

Tested on: adults with nonalcoholic fatty liver disease (NAFLD)/presumed nonalcoholic steatohepatitis (NASH)
Test: 52-week Phase 3 trial (Example 1): sex hormone levels
Format: in vivo, human
Conditions: Week 52
Method: A 52-week randomized, double-blind, placebo-controlled Phase 3 trial was conducted to evaluate the safety and effect of resmetirom, an oral, once-daily, liver-targeted thyroid hormone receptor-β selective agonist, on multiple biomarkers in adults with nonalcoholic fatty liver disease (NAFLD)/presumed nonalcoholic steatohepatitis (NASH). Patients were randomized to three double-blind arms (100 mg resmetirom, 80 mg resmetirom, or placebo) or one open-label arm (100 mg resmetirom). Common concomitant medications across the 4 arms were antidiabetes drugs (such as glucagon-like peptide-1 receptor agonists (GLP-1 RAs), metformin, pioglitazone, and sodium/glucose cotransporter-2 inhibitors (SGLT2i)) and drugs to manage dyslipidemia (statins).
Sex hormone levels after 52 weeks of resmetirom treatment are shown in Table A. Thyroid hormone levels after 52 weeks of resmetirom treatment are reported in Table B.

[1] = Resmetirom 80 mg DB vs Placebo DB
[2] = Resmetirom 100 mg DB vs Placebo DB

CC(C)c1cc(Oc2c(Cl)cc(-n3nc(C#N)c(=O)[nH]c3=O)cc2Cl)n[nH]c1=O [Resmetirom, 2-[3,5-dichloro-4-[(6-oxo-5-propan-2-yl-1H-pyridazin-3-yl)oxy]phenyl]-3,5-dioxo-1,2,4-triazine-6-carbonitrile]
Free testosterone (male) LSM Difference [1]: 0.0115 µg/L | LH (female) LSM Difference [1]: −0.9 IU/L | LH (male) LSM Difference [1]: 0.4 IU/L | SHBG (female) LSM Difference in % CFB [1]: 119.5% | SHBG (female) LSM Difference in CFB [1]: 39.9 nmol/L | SHBG (male) LSM Difference in % CFB [1]: 69.7% | SHBG (male) LSM Difference in CFB [1]: 24.5 (3.9) nmol/L | SHBG LSM Difference in % CFB [1]: 96.0% | SHBG LSM Difference in CFB [1]: 32.1 nmol/L | Testosterone (female) LSM Difference [1]: 0.1 µg/L | Testosterone (male) LSM Difference [1]: 1.5 µg/L | Estradiol (female) LSM CFB (Resmetirom 80 mg DB): 5.0 ng/L | Estradiol (male) LSM CFB (Resmetirom 80 mg DB): 3.3 ng/L | FSH (female) LSM CFB (Resmetirom 80 mg DB): 0.9 IU/L | FSH (male) LSM CFB (Resmetirom 80 mg DB): 0.3 IU/L | Free testosterone (female) LSM CFB (Resmetirom 80 mg DB): 0.0004 µg/L | Free testosterone (male) LSM CFB (Resmetirom 80 mg DB): 0.0077 µg/L | LH (female) LSM CFB (Resmetirom 80 mg DB): 0.8 IU/L | LH (male) LSM CFB (Resmetirom 80 mg DB): 0.4 IU/L | SHBG (female) LSM % CFB (Resmetirom 80 mg DB): 133.0% | SHBG (female) LSM CFB (Resmetirom 80 mg DB): 43.3 nmol/L | SHBG (male) LSM % CFB (Resmetirom 80 mg DB): 67.1% | SHBG (male) LSM CFB (Resmetirom 80 mg DB): 21.9 nmol/L | SHBG LSM % CFB (Resmetirom 80 mg DB): 99.6% | SHBG LSM CFB (Resmetirom 80 mg DB): 32.7 nmol/L | Testosterone (female) LSM CFB (Resmetirom 80 mg DB): 0.1 µg/L | Testosterone (male) LSM CFB (Resmetirom 80 mg DB): 1.4 µg/L | Estradiol (female) LSM Difference [2]: 9.5 ng/L | Estradiol (male) LSM Difference [2]: 10.4 ng/L | FSH (female) LSM Difference [2]: −0.4 IU/L | FSH (male) LSM Difference [2]: 0.5 IU/L | Free testosterone (female) LSM Difference [2]: -0.0006 µg/L | Free testosterone (male) LSM Difference [2]: 0.0029 µg/L | LH (female) LSM Difference [2]: −0.5 IU/L | LH (male) LSM Difference [2]: 0.8 IU/L | SHBG (female) LSM Difference in % CFB [2]: 184.0% | SHBG (female) LSM Difference in CFB [2]: 61.8 nmol/L | SHBG (male) LSM Difference in % CFB [2]: 125.5% | SHBG (male) LSM Difference in CFB [2]: 41.7 (3.8) nmol/L | SHBG LSM Difference in % CFB [2]: 157.5% | SHBG LSM Difference in CFB [2]: 52.4 nmol/L | Testosterone (female) LSM Difference [2]: 0.1 µg/L | Testosterone (male) LSM Difference [2]: 2.1 µg/L | Estradiol (female) LSM CFB (Resmetirom 100 mg DB): 7.5 ng/L | Estradiol (male) LSM CFB (Resmetirom 100 mg DB): 8.9 ng/L | FSH (female) LSM CFB (Resmetirom 100 mg DB): 1.6 IU/L | FSH (male) LSM CFB (Resmetirom 100 mg DB): 0.6 IU/L | Free testosterone (female) LSM CFB (Resmetirom 100 mg DB): -0.0003 µg/L | Free testosterone (male) LSM CFB (Resmetirom 100 mg DB): -0.0009 µg/L | LH (female) LSM CFB (Resmetirom 100 mg DB): 1.2 IU/L | LH (male) LSM CFB (Resmetirom 100 mg DB): 0.9 IU/L | SHBG (female) LSM % CFB (Resmetirom 100 mg DB): 197.6% | SHBG (female) LSM CFB (Resmetirom 100 mg DB): 65.3 nmol/L | SHBG (male) LSM % CFB (Resmetirom 100 mg DB): 122.9% | SHBG (male) LSM CFB (Resmetirom 100 mg DB): 39.2 nmol/L | SHBG LSM % CFB (Resmetirom 100 mg DB): 161.1% | SHBG LSM CFB (Resmetirom 100 mg DB): 53.0 nmol/L | Testosterone (female) LSM CFB (Resmetirom 100 mg DB): 0.1 µg/L | Testosterone (male) LSM CFB (Resmetirom 100 mg DB): 2.0 µg/L | Estradiol (female) LSM CFB (Resmetirom 100 mg OL): 11.0 ng/L | Estradiol (male) LSM CFB (Resmetirom 100 mg OL): 11.7 ng/L | FSH (female) LSM CFB (Resmetirom 100 mg OL): 1.3 IU/L | FSH (male) LSM CFB (Resmetirom 100 mg OL): 0.6 IU/L | Free testosterone (female) LSM CFB (Resmetirom 100 mg OL): -0.0006 µg/L | Free testosterone (male) LSM CFB (Resmetirom 100 mg OL): 0.024 µg/L | LH (female) LSM CFB (Resmetirom 100 mg OL): −0.0 IU/L | LH (male) LSM CFB (Resmetirom 100 mg OL): 0.3 IU/L | SHBG (female) LSM % CFB (Resmetirom 100 mg OL): 199.3% | SHBG (female) LSM CFB (Resmetirom 100 mg OL): 68.6 nmol/L | SHBG (male) LSM % CFB (Resmetirom 100 mg OL): 156.0% | SHBG (male) LSM CFB (Resmetirom 100 mg OL): 44.7 nmol/L | SHBG LSM % CFB (Resmetirom 100 mg OL): 182.6% | SHBG LSM CFB (Resmetirom 100 mg OL): 60.3 nmol/L | Testosterone (female) LSM CFB (Resmetirom 100 mg OL): 0.1 µg/L | Testosterone (male) LSM CFB (Resmetirom 100 mg OL): 2.8 µg/L
